Patent publication US20250099467A1, “COMBINATION THERAPY FOR TREATING ABNORMAL CELL GROWTH” (Verastem, Inc., priority 2022, published 2025)

How the values were obtained:
Type in all cases: cell-based, human
[1] = test system: endometrial cancer cell lines; test: 3D proliferation assay with synergy analysis, endometrial panel; conditions: VS-6766 combined with ZN-C3 (WEE1); panel of 6 endometrial cancer cell lines; 3D Matrigel, 7 days, CellTiter-Glo; FIG. 3, 4
Experimental: (§1) As examples, human cancer cell lines including non-small cell lung cancer (NSCLC), colorectal cancer (CRC), ovarian cancer and endometrial cancer were grown in 3D conditions. Briefly, 96-well plates were coated with 50 μL of Matrigel (100%) and incubated at 37° C. and 5% CO2 for 30 min in order for the Matrigel to solidify. Cells were seeded in 100 μL of 2% Matrigel containing medium. After an overnight incubation (17-22 hours), cells were treated with VS-6766 (RAF/MEK clamp)+/−DDR pathway inhibitor (e.g., DDR pathway inhibitor that targets WEE1, e.g., ZN-C3) for 7 days. VS-6766 was used at 1:5 dilutions starting at 5 μM and ZN-C3 was used at 1:3 dilutions starting at 5 μM. Cell viability was measured using the cell viability CellTiter-Glo assay.
(§2) Raw data and metadata files were processed with a custom R-script for single agent and combination activity. Bliss, Loewe, Highest Single Agent (HSA) and ZIP synergy analysis were performed to generate a composite synergy score. Summary graphics and reports were saved for visualization and further analysis.

[2] = test system: ovarian cancer cell lines; test: 3D proliferation assay with synergy analysis, ovarian panel; conditions: VS-6766 combined with ZN-C3 (WEE1); panel of 12 ovarian cancer cell lines; 3D Matrigel, 7 days, CellTiter-Glo; FIG. 3, 4
Experimental: as §1, §2

[3] = test system: NSCLC KRAS mutant cell lines; test: 3D proliferation assay with synergy analysis, NSCLC panel; conditions: VS-6766 combined with ZN-C3 (WEE1); panel of 9 NSCLC KRAS mutant cell lines; 3D Matrigel, 7 days, CellTiter-Glo; FIG. 1, 2
Experimental: as §1, §2

[4] = test system: CRC KRAS mutant cell lines; test: 3D proliferation assay with synergy analysis, CRC panel; conditions: VS-6766 combined with ZN-C3 (WEE1); panel of 9 CRC KRAS mt cell lines; 3D Matrigel, 7 days, CellTiter-Glo; FIG. 1, 2
Experimental: as §1, §2

Measured: synergy with ZN-C3 in reducing cell viability (composite of Bliss, Loewe, HSA and ZIP)

CNS(=O)(=O)Nc1nccc(Cc2c(C)c3ccc(Oc4ncccn4)cc3oc2=O)c1F [VS-6766]
synergistic: all assays above
